The target of one assay is T1, human GIP R (Homo sapiens, UniProt P48546).
T1 construct: expressed in transfected cells
T1 sequence (P48546 22-466): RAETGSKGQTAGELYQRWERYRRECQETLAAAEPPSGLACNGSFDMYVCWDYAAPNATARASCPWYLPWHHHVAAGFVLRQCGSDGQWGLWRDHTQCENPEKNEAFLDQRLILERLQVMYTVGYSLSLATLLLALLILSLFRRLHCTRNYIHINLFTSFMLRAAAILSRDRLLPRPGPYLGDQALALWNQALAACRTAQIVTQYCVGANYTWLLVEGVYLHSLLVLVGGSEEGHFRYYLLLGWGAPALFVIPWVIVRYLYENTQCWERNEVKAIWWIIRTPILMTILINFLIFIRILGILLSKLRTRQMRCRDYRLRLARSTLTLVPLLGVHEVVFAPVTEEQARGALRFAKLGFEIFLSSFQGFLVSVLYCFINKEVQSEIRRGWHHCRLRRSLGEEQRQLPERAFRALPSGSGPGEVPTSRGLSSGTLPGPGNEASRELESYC
The assay is described as follows: Human GIP receptor (GIP R) activity assay, cAMP induction (AlphaScreen) in HEK293 cells. It is filed as cell-based. The conditions noted are these: read-out: hGIP-R cAMP EC50 average value. The procedure: (§1) Human GIP Receptor (GIP R) and GLP-1 Receptor (GLP-1 R) Activity Assay
(§2) In vitro effects of peptide conjugates of the invention were assessed by measuring the induction of cAMP following stimulation of the respective receptor by GIP, GLP1 or analogues of these, as outlined in the invention, using the AlphaSceen® cAMP kit from Perkin-Elmer according to instructions. Briefly, HEK293 cells expressing the human GIP R or GLP-1 R (stable cell lines generated through transfection of the cDNA for human GIP R or GLP-1 and selection of stable clones) were seeded at 30,000 cells/well in 96-well microtiter plates coated with 0.01% poly-L-lysine, and grown for 1 day in culture in 200 μl growth medium (DMEM, 10% FCS, Penicillin (100 IU/ml), Streptomycin (100 μg/ml)). On the day of analysis, growth medium was removed and the cells were washed once with […] Tyrode's buffer (Tyrode's Salts (9.6 g/l), 10 mM HEPES, pH 7.4). […] The Assay buffer was removed and cells are lysed in 80 μl Lysis buffer (0.1% w/v BSA, 5 mM HEPES, 0.3% v/v Tween-20) per well. From each well 10 μl lysed cells was transferred to a 384-well plate and mixed with 15 μl bead-mix (1 Unit/15 μl anti-cAMP Acceptor Beads, 1 Unit/15 μl Donor Beads, and 1 Unit/15 μl Biotinylated cAMP in Assay Buffer). The plates were mixed and incubated in the dark for an hour at room temperature before measuring using an Envision™ plate reader (Perkin-Elmer).
(§3) The resulting cAMP curves were plotted as absolute cAMP concentrations (nM) over log (test compound concentration) and analyzed using the curve fitting program XLfit.
(§4) Parameters calculated to describe both the potency as well as the agonistic activity of each test compound on the receptors were:
(§5) EC50, a concentration resulting in a half-maximal elevation of cAMP levels, reflecting the potency of the test compound.
Background: Bead proximity is the source of the signal in Alpha formats.

Another assay concerns the target T2, human GLP-1 R (Homo sapiens, UniProt P43220).
T2 construct: expressed in transfected cells
In words: Human GLP-1 receptor (GLP-1 R) activity assay, cAMP induction (AlphaScreen) in HEK293 cells. It is filed as cell-based. The procedure: as §1, §2, §3, §4, §5

Where [1] appears, read: Table 2, HEK293 cells expressing human GIP R.
[2] abbreviates: Table 2a, secondary assay study.
Where [3] appears, read: Table 3, most comprehensive data.
Where [4] appears, read: Table 2, HEK293 cells expressing human GLP-1 R, read-out: hGLP1-R cAMP EC50 average value.
[5] abbreviates: Table 2a, secondary assay study, read-out: hGLP1-R cAMP EC50 average value.
[6] abbreviates: Table 3, most comprehensive data, read-out: hGLP-1-R cAMP EC50 average value.

pEC50: −log10 of the molar value. Like-named read-outs stand apart in the source and are kept apart here. *1 amine or outer side, *2 acyl side, *3 side chain or, on linkers, in order; H or OH if unused. Where a SMILES comes first, the peptide text is derived from it. Side-chain parts run from the residue outwards. [ ]: non-standard residue; d: D form. The star is where a group is joined. C18 diacid = O=C(O)CCCCCCCCCCCCCCCCC(=O)*; γGlu = O=C(O)[C@H](CCC(=O)[*:2])N[*:1]; AEEA = NCCOCCOCC(=O)O; Aib = CC(C)(N)C(=O)O

For orientation: pEC50 means −log10 of the EC50, conventionally taken in molar units.

T2 sequence (P43220 24-463): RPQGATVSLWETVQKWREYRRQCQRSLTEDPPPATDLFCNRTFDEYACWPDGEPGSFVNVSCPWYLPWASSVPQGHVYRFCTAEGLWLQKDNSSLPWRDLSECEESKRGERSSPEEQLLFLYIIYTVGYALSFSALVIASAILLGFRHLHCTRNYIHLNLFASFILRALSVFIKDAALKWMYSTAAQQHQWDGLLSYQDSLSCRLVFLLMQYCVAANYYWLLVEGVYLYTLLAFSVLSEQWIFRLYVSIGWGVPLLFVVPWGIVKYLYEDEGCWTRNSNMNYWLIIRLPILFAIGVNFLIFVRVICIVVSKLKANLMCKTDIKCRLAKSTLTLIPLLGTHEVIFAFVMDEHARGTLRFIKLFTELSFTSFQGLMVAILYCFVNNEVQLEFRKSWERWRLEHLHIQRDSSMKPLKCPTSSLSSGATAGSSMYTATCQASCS

As for `CC[C@H](C)[C@H](NC(=O)[C@H](CO)NC(=O)[C@H](Cc1ccc(O)cc1)NC(=O)[C@H](CC(=O)O)NC(=O)[C@H](CO)NC(=O)[C@@H](NC(=O)[C@H](Cc1ccccc1)NC(=O)[C@@H](NC(=O)CNC(=O)[C@H](CCC(=O)O)NC(=O)C(C)(C)NC(=O)[C@@H](N)Cc1ccc(O)cc1)[C@@H](C)O)[C@@H](C)O)C(=O)NC(C)(C)C(=O)N[C@@H](CC(C)C)C(=O)N[C@@H](CC(=O)O)C(=O)N[C@@H](CCCCN)C(=O)N[C@@H](CCCCNC(=O)COCCOCCNC(=O)COCCOCCNC(=O)CC[C@H](NC(=O)CCCCCCCCCCCCCCCCC(=O)O)C(=O)O)C(=O)N[C@@H](C)C(=O)N[C@@H](CCC(N)=O)C(=O)N[C@@H](CCCNC(=N)N)C(=O)N[C@@H](C)C(=O)N[C@@H](Cc1ccccc1)C(=O)N[C@H](C(=O)N[C@@H](CCC(=O)O)C(=O)N[C@@H](Cc1c[nH]c2ccccc12)C(=O)N[C@@H](CC(C)C)C(=O)N[C@@H](CC(C)C)C(=O)N[C@@H](C)C(=O)N[C@@H](CCC(N)=O)C(=O)NCC(=O)N1CCC[C@H]1C(=O)N[C@@H](CO)C(=O)N[C@@H](CO)C(=O)NCC(=O)N[C@@H](C)C(=O)N1CCC[C@H]1C(=O)N1CCC[C@H]1C(=O)N1CCC[C@H]1C(=O)N[C@@H](CO)C(N)=O)C(C)C` [Compound 11] (H-Y[Aib]EGTFTSDYSI[Aib]LDKK([AEEA-AEEA-γGlu-C18 diacid])AQRAFVEWLLAQGPSSGAPPPS-NH2), the pEC50 at human GIP R (setting [1]) was 11.33; at human GIP R (setting [2]), 11.30; on human GIP R (setting [3]) it was 11.30; on human GLP-1 R (setting [4]) it was 10.89; on human GLP-1 R (setting [5]), 10.89.
As to `CC[C@H](C)[C@H](NC(=O)[C@H](CO)NC(=O)[C@H](Cc1ccc(O)cc1)NC(=O)[C@H](CC(=O)O)NC(=O)[C@H](CO)NC(=O)[C@@H](NC(=O)[C@H](Cc1ccccc1)NC(=O)[C@@H](NC(=O)CNC(=O)[C@H](CCC(=O)O)NC(=O)C(C)(C)NC(=O)[C@@H](N)Cc1ccc(O)cc1)[C@@H](C)O)[C@@H](C)O)C(=O)N[C@@H](Cc1ccc(O)cc1)C(=O)N[C@@H](CC(C)C)C(=O)N[C@@H](CC(=O)O)C(=O)N[C@@H](CCCCN)C(=O)N[C@@H](CCCCNC(=O)COCCOCCNC(=O)COCCOCCNC(=O)CC[C@H](NC(=O)CCCCCCCCCCCCCCCCC(=O)O)C(=O)O)C(=O)N[C@@H](C)C(=O)N[C@@H](CCC(N)=O)C(=O)N[C@@H](CCCNC(=N)N)C(=O)N[C@@H](C)C(=O)N[C@@H](Cc1ccccc1)C(=O)N[C@H](C(=O)N[C@@H](CC(N)=O)C(=O)N[C@@H](Cc1c[nH]c2ccccc12)C(=O)N[C@@H](CC(C)C)C(=O)N[C@@H](CC(C)C)C(=O)N[C@@H](C)C(=O)NC(C)(C)C(=O)N[C@@H](CCCCN)C(N)=O)C(C)C` [Compound 12] (H-Y[Aib]EGTFTSDYSIYLDKK([AEEA-AEEA-γGlu-C18 diacid])AQRAFVNWLLA[Aib]K-NH2), the pEC50 at human GIP R (setting [1]) was 10.96; on human GIP R (setting [2]) it was 10.92; at human GLP-1 R (setting [4]), 10.80; on human GLP-1 R (setting [5]) it was 10.77.
`CC[C@H](C)[C@H](NC(=O)[C@H](Cc1ccccc1)NC(=O)[C@H](CCC(=O)O)NC(=O)[C@H](CCCCN)NC(=O)[C@H](C)NC(=O)[C@H](C)NC(=O)[C@H](CCCCNC(=O)COCCOCCNC(=O)COCCOCCNC(=O)CC[C@H](NC(=O)CCCCCCCCCCCCCCCCC(=O)O)C(=O)O)NC(=O)[C@H](CCC(=O)O)NC(=O)[C@H](CC(=O)O)NC(=O)[C@H](CC(C)C)NC(=O)[C@H](Cc1ccc(O)cc1)NC(=O)[C@@H](NC(=O)[C@H](CO)NC(=O)[C@H](Cc1ccc(O)cc1)NC(=O)[C@H](CC(=O)O)NC(=O)[C@H](CO)NC(=O)[C@@H](NC(=O)[C@H](Cc1ccccc1)NC(=O)[C@@H](NC(=O)CNC(=O)[C@H](CCC(=O)O)NC(=O)C(C)(C)NC(=O)[C@@H](N)Cc1ccc(O)cc1)[C@@H](C)O)[C@@H](C)O)[C@@H](C)CC)C(=O)N[C@@H](CCC(=O)O)C(=O)N[C@@H](Cc1c[nH]c2ccccc12)C(=O)N[C@@H](CC(C)C)C(=O)N[C@@H](CCC(=O)O)C(=O)N[C@@H](CO)C(=O)N[C@@H](C)C(N)=O` [Compound 13]: the pEC50 is 9.82 at human GIP R (setting [3]) and 10.24 on human GLP-1 R (setting [6]).
Turning to `CC[C@H](C)[C@H](NC(=O)[C@H](CO)NC(=O)[C@H](Cc1ccc(O)cc1)NC(=O)[C@H](CC(=O)O)NC(=O)[C@H](CO)NC(=O)[C@@H](NC(=O)[C@H](Cc1ccccc1)NC(=O)[C@@H](NC(=O)CNC(=O)[C@H](CCC(=O)O)NC(=O)C(C)(C)NC(=O)[C@@H](N)Cc1ccc(O)cc1)[C@@H](C)O)[C@@H](C)O)C(=O)N[C@@H](C)C(=O)N[C@@H](CC(C)C)C(=O)N[C@@H](CC(=O)O)C(=O)N[C@@H](CCCCN)C(=O)N[C@@H](CCCCNC(=O)COCCOCCNC(=O)COCCOCCNC(=O)CC[C@H](NC(=O)CCCCCCCCCCCCCCCCC(=O)O)C(=O)O)C(=O)N[C@@H](C)C(=O)N[C@@H](CCC(N)=O)C(=O)N[C@@H](CCCNC(=N)N)C(=O)N[C@@H](C)C(=O)N[C@@H](Cc1ccccc1)C(=O)N[C@H](C(=O)N[C@@H](CC(N)=O)C(=O)N[C@@H](Cc1c[nH]c2ccccc12)C(=O)N[C@@H](CC(C)C)C(=O)N[C@H](C(=O)N[C@@H](C)C(=O)NC(C)(C)C(=O)N[C@@H](CCCCN)C(=O)N1CCC[C@H]1C(=O)N[C@@H](CO)C(=O)N[C@@H](CO)C(=O)NCC(=O)N[C@@H](C)C(=O)N1CCC[C@H]1C(=O)N1CCC[C@H]1C(=O)N1CCC[C@H]1C(=O)N[C@@H](CO)C(N)=O)C(C)C)C(C)C` [Compound 14], the pEC50 was 11.19 at human GIP R (setting [1]), 11.22 at human GIP R (setting [3]), 11.10 on human GLP-1 R (setting [4]) and 11.10 at human GLP-1 R (setting [6]).
For `CC[C@H](C)[C@H](NC(=O)[C@H](Cc1ccccc1)NC(=O)[C@H](CCC(=O)O)NC(=O)[C@H](CCCCN)NC(=O)[C@H](C)NC(=O)[C@H](C)NC(=O)[C@H](CCCCNC(=O)COCCOCCNC(=O)COCCOCCNC(=O)CC[C@H](NC(=O)CCCCCCCCCCCCCCCCC(=O)O)C(=O)O)NC(=O)[C@H](CCC(=O)O)NC(=O)[C@H](CC(=O)O)NC(=O)[C@H](CC(C)C)NC(=O)[C@H](Cc1ccc(O)cc1)NC(=O)[C@@H](NC(=O)[C@H](CO)NC(=O)[C@H](Cc1ccc(O)cc1)NC(=O)[C@H](CC(=O)O)NC(=O)[C@H](CO)NC(=O)[C@@H](NC(=O)[C@H](Cc1ccccc1)NC(=O)[C@@H](NC(=O)CNC(=O)[C@H](CCC(=O)O)NC(=O)C(C)(C)NC(=O)[C@@H](N)Cc1ccc(O)cc1)[C@@H](C)O)[C@@H](C)O)[C@@H](C)CC)C(=O)N[C@@H](CCC(=O)O)C(=O)N[C@@H](Cc1c[nH]c2ccccc12)C(=O)N[C@@H](CC(C)C)C(=O)N[C@@H](CCC(=O)O)C(=O)N[C@@H](CO)C(=O)N[C@@H](C)C(N)=O` [Compound 14], the negative logarithm of the EC50 (pEC50) is 9.83 on human GIP R (setting [2]) and 10.25 at human GLP-1 R (setting [5]).
The like results for `CC[C@H](C)[C@H](NC(=O)[C@H](CO)NC(=O)[C@H](Cc1ccc(O)cc1)NC(=O)[C@H](CC(=O)O)NC(=O)[C@H](CO)NC(=O)[C@@H](NC(=O)[C@H](Cc1ccccc1)NC(=O)[C@@H](NC(=O)CNC(=O)[C@H](CCC(=O)O)NC(=O)C(C)(C)NC(=O)[C@@H](N)Cc1ccc(O)cc1)[C@@H](C)O)[C@@H](C)O)C(=O)N[C@@H](C)C(=O)N[C@@H](CC(C)C)C(=O)N[C@@H](CC(=O)O)C(=O)N[C@@H](CCCCN)C(=O)N[C@@H](CCCCNC(=O)COCCOCCNC(=O)COCCOCCNC(=O)CC[C@H](NC(=O)CCCCCCCCCCCCCCCCC(=O)O)C(=O)O)C(=O)N[C@@H](C)C(=O)N[C@@H](CCC(N)=O)C(=O)N[C@@H](CCCNC(=N)N)C(=O)N[C@@H](C)C(=O)N[C@@H](Cc1ccccc1)C(=O)N[C@H](C(=O)N[C@@H](CC(N)=O)C(=O)N[C@@H](Cc1c[nH]c2ccccc12)C(=O)N[C@@H](CC(C)C)C(=O)N[C@H](C(=O)N[C@@H](C)C(=O)NC(C)(C)C(=O)N[C@@H](CCCCN)C(=O)N1CCC[C@H]1C(=O)N[C@@H](CO)C(=O)N[C@@H](CO)C(=O)NCC(=O)N[C@@H](C)C(=O)N1CCC[C@H]1C(=O)N1CCC[C@H]1C(=O)N1CCC[C@H]1C(=O)N[C@@H](CO)C(N)=O)C(C)C)C(C)C` [Compound 15] were, in that order, 11.22 and 11.10.

The values are drawn from patent US10093713B2, “GIP-GLP-1 dual agonist compounds and methods” (priority 2013, dated 2018).
